Data on twelve compounds can be found in PubChem BioAssay (NCI).

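Each compound was tested at five concentrations against cells in 96-well plates for 48 hours. At the GI50, growth is halved. TGI marks complete inhibition of growth.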 Bounds are passed on as bounds.

Some test systems named below: SN12C renal; SR leukemia; OVCAR-3 ovarian; HCT-116 colon; A498 renal; BT-549 breast; CAKI-1 renal; MDA-MB-435; SF-539 CNS; UACC-62 melanoma.
Test in all cases: inhibition of tumour cell growth, NCI panel, 48 h

With `O=C(Nc1ccccc1)N1CCN(C(=O)Nc2ccccc2)C1=S`, the TGI is over 100 µM in the assay with SN12C renal; over 100 µM in the assay on SR leukemia; over 100 µM with OVCAR-3 ovarian; over 100 µM with HCT-116 colon; 7.64 µM in the assay on A498 renal; over 100 µM in the assay on BT-549 breast. In addition, the TGI is over 100 µM in the assay with CAKI-1 renal, over 100 µM with MDA-MB-435 and 41.5 µM with SF-539 CNS.

As to `COC1/C=C/C(C)C(O)CC(O)/C=C/C(C)C(C(C)C(OC)C(C)CCC(=O)C(C)C(C/C=C/N(C)C=O)OC)OC(=O)/C=C/C=C(\C)CC(OC)CC2=CC(=O)O[C@@H](C(C)C(OC)C1)[C@H]2O` (some centres not stated), the TGI came out at 1.78 µM in the assay on SN12C renal; 0.019 µM with UACC-62 melanoma; 24.6 µM in the assay on SR leukemia; 0.0106 µM in the assay with OVCAR-3 ovarian; 0.00952 µM in the assay on HCT-116 colon; 0.0164 µM with A498 renal. The TGI turned out to be 1.5 µM in the assay with BT-549 breast, 0.0192 µM in the assay with CAKI-1 renal, 0.906 µM in the assay on MDA-MB-435 and 0.0172 µM with SF-539 CNS.

Regarding `C=C1c2nc3ccccc3n2C=C(c2ccc(C)cc2)N1c1ccc(OC)cc1`, the TGI in the assay on SN12C renal was over 100 µM; in the assay on UACC-62 melanoma, over 100 µM; with SR leukemia, 19.8 µM; in the assay with OVCAR-3 ovarian, over 100 µM; with HCT-116 colon it was over 100 µM; with A498 renal, over 100 µM. Further, the TGI was over 100 µM with BT-549 breast, over 96.9 µM with CAKI-1 renal, 49.2 µM in the assay with MDA-MB-435 and over 100 µM in the assay with SF-539 CNS.

On to `CCOC(=O)NC(=S)N(CC(=O)c1cc(OC)c(OC)c(OC)c1)c1ccc(Cl)cc1`, for which the GI50 was over 100 µM in the assay on SN12C renal; 55.2 µM in the assay on UACC-62 melanoma; 38.1 µM with SR leukemia; over 100 µM in the assay on OVCAR-3 ovarian; 72.3 µM in the assay with HCT-116 colon; 90.1 µM with A498 renal. Further, the GI50 in the assay with BT-549 breast is 41.6 µM; with CAKI-1 renal it was 63.5 µM; in the assay on MDA-MB-435 it was over 100 µM; with SF-539 CNS it was over 100 µM. For the same compound, the TGI in the assay with SN12C renal, with UACC-62 melanoma, in the assay on SR leukemia, in the assay with OVCAR-3 ovarian, with HCT-116 colon and with A498 renal was over 100 µM in each case. For the same compound, the TGI in the assay on BT-549 breast, with CAKI-1 renal, in the assay on MDA-MB-435 and in the assay on SF-539 CNS was over 100 µM throughout.

Consider `Nc1c(C(=O)c2ccc(Cl)c(Cl)c2)[nH]c(NCc2ccccc2)c1C(=S)Nc1ccccc1`, for which the TGI in the assay on SN12C renal is 29.2 µM; in the assay on UACC-62 melanoma, 29.2 µM; in the assay on SR leukemia it was over 100 µM; in the assay on OVCAR-3 ovarian, 38.5 µM; with HCT-116 colon it was 12.6 µM; in the assay on A498 renal it was 31.5 µM. The TGI with BT-549 breast was 30.5 µM; in the assay on CAKI-1 renal, 32.2 µM; with MDA-MB-435, 18.3 µM; with SF-539 CNS it was 6.47 µM.

As for `C[C@]12CC[C@H]3[C@@H](CC=C4C[C@@H](N5CCCC5)CC[C@@]43C)[C@@H]1C[C@H](N1CCCCC1)[C@@H]2O`, the TGI in the assay with SN12C renal was over 100 µM; with UACC-62 melanoma, over 100 µM; in the assay with SR leukemia, 35.7 µM; with OVCAR-3 ovarian it was over 100 µM; with HCT-116 colon, over 100 µM; with A498 renal, over 100 µM. The TGI with BT-549 breast, in the assay on CAKI-1 renal, in the assay with MDA-MB-435 and in the assay with SF-539 CNS was over 100 µM in each case.

`COC1CC(C)(NC(=O)C(F)(F)F)C2OC(c3ccccc3)OCC2O1` (configuration not stated): the TGI in the assay with SN12C renal, in the assay with UACC-62 melanoma, in the assay on SR leukemia, with OVCAR-3 ovarian, in the assay on HCT-116 colon and in the assay on A498 renal was over 100 µM in each case. The TGI in the assay on BT-549 breast, with CAKI-1 renal, with MDA-MB-435 and in the assay on SF-539 CNS was over 100 µM each time.

On to `Cc1ccccc1NC(=O)O/N=C(\Cl)C(C)C`, for which the TGI is 3.2 µM with SN12C renal; 28.3 µM in the assay on UACC-62 melanoma; over 100 µM in the assay with SR leukemia; 9.35 µM with OVCAR-3 ovarian; 4.79 µM with HCT-116 colon; 36.4 µM in the assay with A498 renal. For the same compound, the TGI amounted to 12.6 µM in the assay with BT-549 breast, 3.2 µM in the assay with CAKI-1 renal, 30.1 µM in the assay with MDA-MB-435 and 22.6 µM in the assay with SF-539 CNS.

Consider `COC(=N)C1(C#N)NC(c2ccsc2)C(C#N)(C#N)NC1c1ccsc1` (configuration not stated), for which the TGI in the assay with SN12C renal, in the assay on UACC-62 melanoma, in the assay on SR leukemia, with OVCAR-3 ovarian, with HCT-116 colon and in the assay with A498 renal was over 100 µM each time. Further, the TGI in the assay on BT-549 breast, in the assay with CAKI-1 renal, in the assay with MDA-MB-435 and in the assay with SF-539 CNS was over 100 µM throughout.

For the compound `COc1cc(CCNC2=CC(=O)c3nc[nH]c3C2=O)ccc1O`, the TGI in the assay on SN12C renal is over 100 µM; in the assay on UACC-62 melanoma, 36.8 µM; in the assay with SR leukemia it was 98.4 µM; with OVCAR-3 ovarian, 30.5 µM; with HCT-116 colon, 48 µM; in the assay with A498 renal it was 71 µM. The TGI in the assay with BT-549 breast is 42 µM; with CAKI-1 renal it was over 100 µM; in the assay with MDA-MB-435, 31.4 µM; in the assay with SF-539 CNS, over 100 µM.

As to `O=C1c2cc3c(cc2-c2c1c1cc(F)c(F)cc1c(=O)n2CCCn1ccnc1)OCO3`, the GI50 in the assay with SR leukemia is under 0.01 µM; with OVCAR-3 ovarian, 0.116 µM; with HCT-116 colon, under 0.01 µM; in the assay on A498 renal, 0.0233 µM; with BT-549 breast, 0.0502 µM; in the assay with CAKI-1 renal it was under 0.01 µM. For the same compound, the GI50 in the assay with SF-539 CNS was under 0.01 µM. The TGI worked out at 16.6 µM with SR leukemia; 1.52 µM in the assay on OVCAR-3 ovarian; 10.8 µM in the assay with HCT-116 colon; 0.116 µM in the assay with A498 renal; 49.5 µM in the assay on BT-549 breast; 1.42 µM with CAKI-1 renal. The same compound registered a TGI in the assay with SF-539 CNS of 0.0457 µM.

On to `O=[N+]([O-])c1ccc(-n2nc3ccc4nonc4c3n2)cc1`, for which the TGI in the assay on SN12C renal was over 100 µM; with UACC-62 melanoma, over 100 µM; with SR leukemia, over 100 µM; in the assay with OVCAR-3 ovarian, over 100 µM; in the assay with HCT-116 colon it was over 100 µM; with BT-549 breast it was 63.7 µM. The TGI in the assay on CAKI-1 renal was 73.7 µM; in the assay on MDA-MB-435, over 100 µM; with SF-539 CNS it was over 100 µM.
